Test results from patent US9908877B2, “Imidazo[1,5-a]pyridinium ion fluorophores, and methods of making and using the same” (Indiana University Research and Technology Corporation, priority 2013, dated 2018).

Legend:
Assay type in all cases: physicochemical
[1] = Fluorescence quantum yield, integrating sphere; settings: for ΦF (quantum yield): 30 μM acetonitrile, 298 K, Table 1
Protocol: Method for Determining Quantum Yield
Quantum yield is determined using an integrating sphere attached to a QM-4-CW Spectrofluorometer using FeliX32 software (Photon Technology International).
(§1) The compounds were analyzed at 298° K according to the Method for Obtaining Ultraviolet-Visible Light Spectrum (30 μM acetonitrile) to obtain the maximum absorbance wavelength (λabs,max), Method for Obtaining Fluorescence Emission Spectrum (30 μM acetonitrile) to obtain the maximum emission wavelength (λem,max) and Method for Determining Quantum Yield (ΦF) (30 μM acetonitrile) at the concentration, in the solvent, and with the counter ion indicated in Table 1. The compounds included hydrogen at each R group that is not otherwise specified.
(§2) Compounds 6, 7, 9, 11-14 and 21 were analyzed according to: the Method for Obtaining Ultraviolet-Visible Light Spectrum to obtain the maximum absorbance wavelength (λabs,max), the Method for Obtaining Fluorescence Emission Spectrum to obtain the maximum emission wavelength (λem,max), and the Method for Determining Quantum Yield (ΦF) in the solvent and with the counter ion indicated in Table 3.

[2] = Ultraviolet-visible light spectrum (maximum absorbance wavelength)
Protocol: Method for Obtaining an Ultraviolet-Visible Light Spectrum
Ultraviolet-visible (UV-Vis) Light spectra are obtained and recorded on an Agilent 8453 spectrophotometer using ChemStation software (Agilent Technologies, Inc., Santa Clara, Calif.).
as §1, §2

[3] = Fluorescence emission spectrum (maximum emission wavelength)
Protocol: Method for Obtaining a Fluorescence Emission Spectrum
Fluorescence emission spectra are obtained and recorded on a QM-4-CW Spectrofluorometer using FeliX32 software (Photon Technology International, Inc., Birmingham, N.J.).
as §1, §2

[4] = Fluorescence response to pH in buffered water; settings: for fluorescence emission in water at pH 7.5: water pH 7.5
Protocol: Stock solutions of each compound (having a concentration of from 1-5 mM) were prepared by dissolving the corresponding salts of the compounds in methanol or 1V, N-dimethylformamide, and then diluting the same with acetonitrile or buffered water having a pH of from 2.5 to 7.5 derived from 0.2 M […] and 0.1 M citric acid, to achieve a sample solution having a compound concentration of 30.0 μM.
The emission spectrum for each sample was obtained. The results are illustrated by the plot in FIG. 2A.
The emission spectrum for each sample was obtained. […] The results are illustrated in the plot of FIG. 2B.
The fluorescence emission spectrum of Compound 8 in water having a pH of 2.5 was also obtained and is illustrated by the curved line with a peak at 360 nm in FIG. 5B.
Compounds 10, 11, and 12 were each individually added, at a concentration of 30 μM, to water having a pH=7.5 and the emission spectra of each were obtained. […] As the pH was decreased from 7.5 to 2.5 in 0.5 pH unit increments, fluorescence emission at 600 nm remained relatively nonexistent and the intensity of the fluorescence emission at 400 nm increased in correlation to the decrease in pH. FIG. 8A illustrates the emission properties of Compound 12.

[5] = Fluorescence response to trifluoroacetic acid / DBU in acetonitrile; settings: for emission intensity at 400 nm: 30 μM in acetonitrile + 50 μL trifluoroacetic acid; for emission intensity at 600 nm / emission wavelength: 30 μM in neat acetonitrile; for emission wavelength λem,max: acetonitrile + 50 μL trifluoroacetic acid
Protocol: A 30 μM solution of Compound 6 in acetonitrile was prepared by adding 99 μL of a stock solution of 3.04 mM Compound 6 in methanol to 10 mL of acetonitrile. An initial fluorescence emission spectrum of the solution was obtained and is illustrated by curve (i) in FIG. 1A.
A series of approximately 13.8 μL aliquots of trifluoroacetic acid (TFA) were then added to the 30 μM solution of Compound 6 until a total concentration of 60.0 mM of TFA was present in the solution. (The total amount of TFA present in the solution corresponded to 2000 equivalents of acid per equivalent of Compound 6.) The fluorescence emission spectrum of the resulting solution was obtained and is illustrated by curve (ii) in FIG. 1A.
A base, i.e., 1,8-diazabicyclo[5.4.0]undec-7-ene (DBU), was then added to the solution to neutralize the acid until a concentration of 90 mM DBU was obtained. The fluorescence emission spectrum of the resulting solution was obtained and is illustrated by curve (iii) in FIG. 1A. The fluorescence emission intensity at λem,max=565 nm increased as the amount of base present in the system increased and the fluorescence emission intensity at λem,max=405 nm decreased as the amount of base present in the system increased, which reflected Compound 6's ratiometric response to the changing base concentration in acetonitrile.
A 30 μM solution of Compound 7 in acetonitrile was prepared by adding 84 μL of a stock solution of 3.58 mM Compound 7 in methanol to 10 mL of acetonitrile. The emission spectrum of the solution was then obtained and is illustrated by curve (i) in FIG. 1B.
A series of approximately 13.8 μL aliquots of TFA were then added to the 30 μM solution of Compound 7 until a total concentration of 60.0 mM TFA was present in the solution (which corresponded to 2000 equivalents of acid per equivalent of Compound 7). The fluorescence emission spectrum of the solution was obtained and is illustrated by curve (ii) in FIG. 1B.
After the 60 mM TFA concentration was achieved, DBU was gradually added to the solution until a total concentration of 90 mM DBU was present in the solution. The fluorescence spectrum of the solution was obtained and is illustrated by curve (iii) in FIG. 1B.
An aliquot of 50 μL of trifluoroacetic acid was then added to the system, and the fluorescence emission spectrum was obtained and is illustrated by the curved line with a peak at 360 nm in FIG. 6A.
Compound 10 was placed in neat acetonitrile and its emission spectrum was monitored as trifluoroacetic acid was added to the acetonitrile in incremental amounts to achieve a solution that included an acid concentration ranging from 0 to 0.2 M. After each acid addition the sample was excited with radiation of a wavelength 340 nm, and its fluorescence emission spectrum was monitored. The results are illustrated in FIG. 7A.
The solution of Compound 10 in acetonitrile was titrated with trifluoroacetic acid (TFA). […] The first stage, which occurred with the addition of the initial aliquots of TFA, was a slight increase intensity at 580 nm, as illustrated in FIG. 7A. As more TFA was added to the system, a second transition occurred in which the emission at 580 nm began to decrease and as the emission at 400 nm began to increase, as illustrated in FIG. 7B. A plot of the emission intensity at 580 nm versus pH and at 400 nm versus pH is illustrated in FIG. 7C.
Compounds 10, 11, and 12 were then each individually added, at a concentration of 30 μM, to acetonitrile and the emission spectrum of each was monitored. The compounds emitted at 600 nm with an intensity of about 7.57×10^5 arbitrary units (a.u.) in neat acetonitrile. […] FIG. 8B illustrates the emission properties of Compound 12.

[6] = 30 μM acetonitrile, 298 K, Table 1

| SMILES | […]F (quantum yield) ([1]; MeCN, 30 μM) [%] | λabs, max Abs ([2]; MeCN, 30 μM) [nm] | λem, max Em ([3]; MeCN, 30 μM) [nm] | fluorescence emission in water at pH 7.5 [4] | emission wavelength λem,max [5] [nm] | […]F (quantum yield) ([1]; H2O pH = 7.5, 30 μM) [%] | λabs, max Abs ([2]; H2O pH = 7.5, 30 μM) [nm] | ΦF (quantum yield) [1] [%] | λabs, max Abs [2, 6] [nm] | λem, max Em [3, 6] [nm] | also measured |
| --- | --- | --- | --- | --- | --- | --- | --- | --- | --- | --- | --- |
| CCCCn1cc2cccc(-c3ccc(N(C)C)cc3)[n+]2c1 [Compound 9, 2-butyl-5-(4-(dimethylamino)phenyl)-2H-imidazo[1,5-a]pyridin-4-ium tetraphenylborate] | 75 | 350 | 490 | – | – | – | – | – | – | – | – |
| CCN(CC)c1ccc(-n2cc(-c3cccc4cn(-c5ccc(N(C)C)cc5)c[n+]34)nn2)cc1.[Cl-] [Compound 10, 5-(1-(4-(diethylamino)phenyl)-1H-1,2,3-triazol-4-yl)-2-(4-(dimethylamino)phenyl)-2H-imidazo[1,5-a]pyridin-4-ium chloride] | – | – | – | essentially no fluorescence emission | 400 | – | – | – | – | – | emission intensity at 400 nm [5]: 1.34×10^6 a.u.; emission intensity at 600 nm [5]: about 7.57×10^5 arbitrary units (a.u.); emission wavelength [5]: 600 nm; emission response to stepwise addition of TFA ([5]; acetonitrile, TFA 0 to 0.2 M, excited at 340 nm, emission at 580 nm and 400 nm): two stage transitions |
| Cc1ccc(-n2cc3cccc(-c4cn(-c5ccc(N(C)C)cc5)nn4)[n+]3c2)cc1.[Cl-] [Compound 13, 5-(1-(4-(dimethylamino)phenyl)-1H-1,2,3-triazol-4-yl)-2-(p-tolyl)-2H-imidazo[1,5-a]pyridin-4-ium chloride] | 0 | 340 | – | – | – | 0 | 340 | – | – | – | […]F (quantum yield) ([1]; H2O pH = 2.5, 30 μM): 59%; […]F (quantum yield) ([1]; MeCN + 50 μL TFA, 30 μM): 67%; λabs, max Abs ([2]; H2O pH = 2.5, 30 μM): 340 nm; λabs, max Abs ([2]; MeCN + 50 μL TFA, 30 μM): 340 nm; λem, max Em ([3]; H2O pH = 2.5, 30 μM): 405 nm; λem, max Em ([3]; MeCN + 50 μL TFA, 30 μM): 410 nm |
| CCN(CC)c1ccc(-n2cc(-c3cccc4cn(-c5ccc(C)cc5)c[n+]34)nn2)cc1.[Cl-] [Compound 14, 5-(1-(4-(diethylamino)phenyl)-1H-1,2,3-triazol-4-yl)-2-(p-tolyl)-2H-imidazo[1,5-a]pyridin-4-ium chloride] | 0 | 340 | – | – | – | 0 | 340 | – | – | – | […]F (quantum yield) ([1]; H2O pH = 2.2, 30 μM): 53%; […]F (quantum yield) ([1]; MeCN + excess TFA, 30 μM): 64%; λabs, max Abs ([2]; H2O pH = 2.2, 30 μM): 340 nm; λabs, max Abs ([2]; MeCN + excess TFA, 30 μM): 340 nm; λem, max Em ([3]; H2O pH = 2.2, 30 μM): 405 nm; λem, max Em ([3]; MeCN + excess TFA, 30 μM): 410 nm |
| COc1ccc(-n2cc3cccc(-c4ccc(N(C)C)cc4)[n+]3c2)cc1 [Compound 21, 5-(4-(dimethylamino)phenyl)-2-(4-methoxyphenyl)-2H-imidazo[1,5-a]pyridin-4-ium tetraphenylborate] | 10 | 360 | 540 | – | – | – | – | – | – | – | – |
| CCCCn1c[n+]2ccccc2c1-c1ccc(C)cc1 [Compound 3, 2-butyl-1-(p-tolyl)-2H-imidazo[1,5-a]pyridin-4-ium tertraphenylborate] | – | – | – | – | – | – | – | 46 | 320 | 415 | – |
| CCCCn1c[n+]2ccccc2c1-c1ccc(N(CC)CC)cc1 [Compound 5, 2-butyl-1-(4-(diethylamino)phenyl)-2H-imidazo[1,5-a]pyridin-4-ium tetraphenylborate] | – | – | – | – | – | – | – | 38 | 355 | 550 | – |
| CC(C)c1cc(N(C)C)cc(C(C)C)c1-n1cc2cccc[n+]2c1 [Compound 8, 2-(4-(dimethylamino)-2,6-diisopropylphenyl)-2H-imidazo[1,5-a]pyridin-4-ium tetraphenylborate] | – | – | – | fluorescence quenching | 360 | – | – | – | – | – | fluorescence λem ([4]; water, pH 2.5): 360 nm; fluorescence emission in neat acetonitrile ([5]; acetonitrile without acid): fluorescence quenching |
| CCCCn1c[n+]2ccccc2c1-c1ccc(OC)cc1.[Cl-] [Compound 4, 2-butyl-1-(4-methoxyphenyl)-2H-imidazo[1,5-a]pyridin-4-ium chloride] | – | – | – | – | – | – | – | 64 | 320 | 430 | – |
| Cc1ccc(-n2cc(-c3cccc4cn(-c5ccc(N(C)C)cc5)c[n+]34)nn2)cc1.[Cl-] [Compound 11, 2-(4-(dimethylamino)phenyl)-5-(1-(p-tolyl)-1H-1,2,3-triazol-4-yl)-2H-imidazo[1,5-a]pyridin-4-ium chloride] | 35 | 400 | 605 | essentially no fluorescence emission | 400 | 0 | 340 | – | – | – | […]F (quantum yield) ([1]; H2O pH = 2.5, 30 μM): 29%; […]F (quantum yield) ([1]; MeCN + 50 μL TFA, 30 μM): 55%; λabs, max Abs ([2]; H2O pH = 2.5, 30 μM): 340 nm; λabs, max Abs ([2]; MeCN + 50 μL TFA, 30 μM): 340 nm; λem, max Em ([3]; H2O pH = 2.5, 30 μM): 400 nm; λem, max Em ([3]; MeCN + 50 μL TFA, 30 μM): 405 nm; emission intensity at 400 nm [5]: 1.34×10^6 a.u.; emission intensity at 600 nm [5]: about 7.57×10^5 arbitrary units (a.u.); emission wavelength [5]: 600 nm |
